The source of these data is patent publication US6787341B2, “Pharmacological targeting of bacterial DNA ligase for treatment and prevention of bacterial infections” (priority 2001, dated 2004).

Format in all cases: biochemical, Amsacta moorei entomopoxvirus
For assay [1], the target named is T1, AmEPV ligase (Betaentomopoxvirus amoorei, UniProt Q9EMK7). The conditions noted are these: for support of ligase activity as divalent cation: 5 mM.
The target of assay [2] is T1, AmEPV ligase. Description: Nucleotide cofactor specificity of AmEPV ligase in nick ligation. As to the method: Reaction mixtures (20 μl) containing 50 mM Tris-HCl (pH 7.5), 10 mM (NH4)2SO4, 5 mM DTT, 5 mM MgCl2, 1 pmol of ^32P-labeled nicked DNA, 32 ng of AmEPV ligase, and 50 μM of the indicated nucleotide were incubated for 30 min at 22° C. A control reaction contained no added nucleotide cofactor (none). The reaction products were resolved by polyacrylamide gel electrophoresis. An autoradiogram of the gel is shown.
A low level of nick ligation could be detected in the absence of added nucleotide (FIG. 6). Cofactor-independent ligation was attributed to pre-adenylated ligase in the enzyme preparation. […] Inclusion of NAD^+ in the reaction mixture stimulated nick ligation such that ˜90% of the input substrate molecules were sealed (FIG. 6). […] Indeed, none of the standard rNTPs or dNTPs were able to satisfy the requirement of AmEPV ligase for a high energy cofactor (FIG. 6). […] A Km of 9 μM NAD^+ was calculated from a double-reciprocal plot of the data.

For assay [3], the target named is T1, AmEPV ligase. The experiment in a line: Step 3 phosphodiester formation at a pre-adenylated nick by AmEPV ligase. Particulars: 50 μM NAD+. The protocol:
Truncated derivatives of AmEPV ligase deleted for motif Ia (NΔ70) or for the OB and HhH domains (CΔ216) were purified by Ni-agarose and phosphocellulose column cheomtography. FIG. 8A: Aliquots (3 μg) of full-sized AmEPV ligase (WT), NΔ70, and CΔ216 were analyzed by SDS-PAGE. A Coomassie blue-stained gel is shown. The positions and sizes (in kDa) of marker proteins are indicated on the left. FIG. 8B: Ligase adenylation reaction mixtures (20 μl) containing 50 mM Tris-HCl (pH 7.5), 5 mM DTT, 5 mM MgCl2, 1 μM [α-^32P]NAD^+ and 8 pmol of WT AmEPV ligase, NΔ70, or CΔ216 were incubated for 15 min at 22° C. The reaction products were resolved by SDS-PAGE and visualized by autoradiography. The positions and sizes (in kDa) of marker proteins are indicated on the right. FIG. 8C: Ligation of nicked DNA and nicked DNA-adenylate. Reaction mixtures (20 μl) containing 50 mM Tris-HCl (pH 7.5), 10 mM (NH4)2SO4, 5 mM DTT, 5 mM MgCl2, either 200 fmol of ^32P-labeled nicked DNA (pDNA) plus 50 μM NAD^+ or 200 fmol ^32P-labeled nicked DNA-adenylate (AppDNA) and no NAD^+, and 2 pmol of WT AmEPV ligase, NΔ70, or CΔ216 were incubated for 30 min at 22° C. The reaction products were resolved by denaturing PAGE. […]
FIG. 9A: Kinetic analysis of step 3. […] The mixtures were adjusted to 5% glycerol and then analyzed by electrophoresis through a 5% native polyacrylamide gel containing 90 mM Tris-borate, 2.5 mM EDTA. […]

In the case of `[Co+2]` [cobalt], the “support of ligase activity as divalent cation” value (“support of ligase activity” for short) in assay [1] is listed as “active, albeit less than magnesium”.

`[Mg+2]` [magnesium]: the “optimal divalent cation concentration for nick joining” value in assay [1] came to 5 mM.

As for `[Ca+2]` [calcium], in assay [1], the “support of ligase activity” value is on record as “did not support ligase activity”.

Regarding `Nc1ncnc2c1ncn2[C@@H]1O[C@H](COP(=O)(O)OP(=O)(O)OP(=O)(O)O)[C@@H](O)[C@H]1O` [ATP], the “stimulation of nick ligation as high energy cofactor” value in assay [2] (50 μM nucleotide) is on record as “failed to stimulate”.

Consider `[Cu+2]` [cooper], for which the “support of ligase activity” value in assay [1] is listed as “did not support ligase activity”.

Consider `[Mn+2]` [Manganese], for which the “support of ligase activity” value in assay [1] is recorded as “active, albeit less than magnesium”.

For `NC(=O)c1ccc[n+]([C@@H]2O[C@H](COP(=O)([O-])OP(=O)(O)OC[C@H]3O[C@@H](n4cnc5c(N)ncnc54)[C@H](O)[C@@H]3O)[C@@H](O)[C@H]2O)c1` [NAD^+], the “input substrate molecules sealed with nucleotide included” value in assay [2] (50 μM nucleotide) is reported as approximately 90%. Further, in assay [2] (sub-saturating enzyme), the “NAD+ concentration at which nick joining activity plateaued” value fell in the range of 50 to 100 µM. For the same compound, the “effect on step 3 catalysis by NΔ70” value in assay [3] (NΔ70) is on record as “no effect whatsoever”. In addition, the “decrement in extent of step 3 ligation by wild-type ligase” value in assay [3] (wild-type AmEPV ligase) was 5 fold.

Regarding `NC(=O)c1ccc[n+]([C@@H]2O[C@H](COP(=O)([O-])OP(=O)(O)OC[C@H]3O[C@@H](n4cnc5c(N)ncnc54)[C@H](OP(=O)(O)O)[C@@H]3O)[C@@H](O)[C@H]2O)c1` [NADP], the “stimulation of nick ligation as high energy cofactor” value in assay [2] (50 μM nucleotide) is “inactive”.

In the case of `[Zn+2]` [zinc], the “support of ligase activity” value in assay [1] is “did not support ligase activity”.
